Data on one molecule can be found in ChEMBL document CHEMBL3580597 (J Med Chem, 2015).

Test [1] concerns the target T1, ATPase family AAA domain-containing protein 2B (Homo sapiens, UniProt Q9ULI0).
T1 sequence (Q9ULI0 whole entry): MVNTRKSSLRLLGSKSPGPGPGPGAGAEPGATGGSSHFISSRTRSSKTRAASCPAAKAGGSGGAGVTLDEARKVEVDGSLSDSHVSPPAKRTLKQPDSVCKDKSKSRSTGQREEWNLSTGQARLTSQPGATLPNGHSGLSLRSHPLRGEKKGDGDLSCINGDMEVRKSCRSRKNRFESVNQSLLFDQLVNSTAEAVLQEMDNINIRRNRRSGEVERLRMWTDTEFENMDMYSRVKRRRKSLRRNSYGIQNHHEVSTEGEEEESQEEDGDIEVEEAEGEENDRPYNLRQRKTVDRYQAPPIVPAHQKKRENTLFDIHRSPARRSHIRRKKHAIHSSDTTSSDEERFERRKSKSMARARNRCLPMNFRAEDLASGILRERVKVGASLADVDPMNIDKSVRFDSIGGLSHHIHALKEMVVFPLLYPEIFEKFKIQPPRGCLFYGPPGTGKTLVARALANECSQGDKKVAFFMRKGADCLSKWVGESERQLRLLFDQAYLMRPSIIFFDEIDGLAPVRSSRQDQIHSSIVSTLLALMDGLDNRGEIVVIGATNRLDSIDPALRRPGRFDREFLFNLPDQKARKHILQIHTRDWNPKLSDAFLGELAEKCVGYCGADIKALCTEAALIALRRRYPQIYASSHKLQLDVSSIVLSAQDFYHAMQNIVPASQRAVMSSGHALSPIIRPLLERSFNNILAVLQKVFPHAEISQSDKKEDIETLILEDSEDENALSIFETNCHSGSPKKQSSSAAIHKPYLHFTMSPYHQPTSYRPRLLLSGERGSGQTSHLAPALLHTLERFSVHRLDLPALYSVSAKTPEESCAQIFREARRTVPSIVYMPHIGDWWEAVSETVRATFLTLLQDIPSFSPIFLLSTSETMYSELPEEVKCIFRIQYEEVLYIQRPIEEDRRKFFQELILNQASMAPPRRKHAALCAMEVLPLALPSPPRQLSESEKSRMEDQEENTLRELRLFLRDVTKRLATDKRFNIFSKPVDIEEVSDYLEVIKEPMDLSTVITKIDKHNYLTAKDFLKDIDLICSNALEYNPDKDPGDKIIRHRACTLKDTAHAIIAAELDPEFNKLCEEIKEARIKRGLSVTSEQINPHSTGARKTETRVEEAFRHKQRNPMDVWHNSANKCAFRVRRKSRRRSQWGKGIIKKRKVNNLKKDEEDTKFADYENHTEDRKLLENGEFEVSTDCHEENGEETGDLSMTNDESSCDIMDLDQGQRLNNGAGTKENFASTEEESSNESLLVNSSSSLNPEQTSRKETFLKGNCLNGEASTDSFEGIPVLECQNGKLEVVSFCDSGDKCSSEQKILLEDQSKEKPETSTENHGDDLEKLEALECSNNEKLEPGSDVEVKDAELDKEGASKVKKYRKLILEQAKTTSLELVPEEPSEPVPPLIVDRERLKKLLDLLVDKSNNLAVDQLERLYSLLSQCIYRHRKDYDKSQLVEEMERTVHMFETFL
The experiment in a line: Binding affinity to biotinylated ATAD2B (953 to 1086 amino acid residues) (unknown origin) expressed in Rosetta2 DE3 cells by bio-layer interferometry method. (In general: BLI is a label-free optical method that tracks binding on a fibre tip over time.)

In test [2] the target is T2, Transcription intermediary factor 1-alpha (Homo sapiens, UniProt O15164).
T2 sequence (O15164 whole entry): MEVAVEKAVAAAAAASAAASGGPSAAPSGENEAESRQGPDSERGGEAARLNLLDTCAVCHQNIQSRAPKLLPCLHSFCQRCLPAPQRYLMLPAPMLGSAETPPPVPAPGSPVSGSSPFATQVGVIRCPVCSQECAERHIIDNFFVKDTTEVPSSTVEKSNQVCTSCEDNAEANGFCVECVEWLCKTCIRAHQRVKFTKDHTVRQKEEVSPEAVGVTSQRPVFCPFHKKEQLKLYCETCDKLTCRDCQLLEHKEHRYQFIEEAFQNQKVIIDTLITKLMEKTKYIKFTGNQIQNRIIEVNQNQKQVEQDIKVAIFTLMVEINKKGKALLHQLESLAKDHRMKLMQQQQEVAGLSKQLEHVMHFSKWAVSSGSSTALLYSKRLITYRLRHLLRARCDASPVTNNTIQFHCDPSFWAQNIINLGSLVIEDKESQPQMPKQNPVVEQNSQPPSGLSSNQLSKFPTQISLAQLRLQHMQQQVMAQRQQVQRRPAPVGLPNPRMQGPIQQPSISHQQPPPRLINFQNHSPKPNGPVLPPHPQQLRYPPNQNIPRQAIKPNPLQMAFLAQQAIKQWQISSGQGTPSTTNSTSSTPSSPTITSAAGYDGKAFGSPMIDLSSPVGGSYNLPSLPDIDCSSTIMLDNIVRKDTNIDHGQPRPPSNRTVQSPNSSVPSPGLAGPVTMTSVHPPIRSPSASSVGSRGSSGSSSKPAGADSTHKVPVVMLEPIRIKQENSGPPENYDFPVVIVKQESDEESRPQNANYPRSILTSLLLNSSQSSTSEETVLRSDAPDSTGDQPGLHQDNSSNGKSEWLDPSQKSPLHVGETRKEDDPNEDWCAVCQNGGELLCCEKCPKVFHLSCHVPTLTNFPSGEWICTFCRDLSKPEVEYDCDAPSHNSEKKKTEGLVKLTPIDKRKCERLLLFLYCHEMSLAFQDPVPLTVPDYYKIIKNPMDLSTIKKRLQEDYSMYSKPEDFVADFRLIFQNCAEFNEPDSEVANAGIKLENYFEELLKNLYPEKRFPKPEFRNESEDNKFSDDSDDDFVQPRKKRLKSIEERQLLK
Description: Binding affinity to biotinylated TRIM24 (790 to 972 amino acid residues) (unknown origin) expressed in Rosetta2 DE3 cells by bio-layer interferometry method.

Test [3] has as its target Bromodomain-containing protein 4 (Homo sapiens, UniProt O60885). The experiment in a line: biochemical.
The target in test [4] is Bromodomain adjacent to zinc finger domain protein 2B (Homo sapiens, UniProt Q9UIF8). The experiment in a line: Binding affinity to biotinylated BAZ2B (2054 to 2168 amino acid residues) (unknown origin) expressed in Rosetta2 DE3 cells by bio-layer interferometry method.
Another test concerns the target CREB-binding protein (Homo sapiens, UniProt Q92793). Description: Binding affinity to biotinylated CREBBP (1043 to 1159 amino acid residues) (unknown origin) expressed in Rosetta2 DE3 cells by bio-layer interferometry method.
In test [5] the target is Bromodomain-containing protein 2 (Homo sapiens, UniProt P25440). The experiment in a line: Displacement of FAM-labeled ZBA248 from BRD2 BD2 (349 to 460 amino acid residues) (unknown origin) expressed in Rosetta2 DE3 cells after 30 mins by fluorescence polarization assay.
The next test relates to MV4-11. The experiment in a line: cells. Type of test: functional, cell-based. As to conditions: Homo sapiens, MV4-11, 96 h.

Bromodomain-containing protein 2, sequence (P25440 whole entry, the tested form may be a part): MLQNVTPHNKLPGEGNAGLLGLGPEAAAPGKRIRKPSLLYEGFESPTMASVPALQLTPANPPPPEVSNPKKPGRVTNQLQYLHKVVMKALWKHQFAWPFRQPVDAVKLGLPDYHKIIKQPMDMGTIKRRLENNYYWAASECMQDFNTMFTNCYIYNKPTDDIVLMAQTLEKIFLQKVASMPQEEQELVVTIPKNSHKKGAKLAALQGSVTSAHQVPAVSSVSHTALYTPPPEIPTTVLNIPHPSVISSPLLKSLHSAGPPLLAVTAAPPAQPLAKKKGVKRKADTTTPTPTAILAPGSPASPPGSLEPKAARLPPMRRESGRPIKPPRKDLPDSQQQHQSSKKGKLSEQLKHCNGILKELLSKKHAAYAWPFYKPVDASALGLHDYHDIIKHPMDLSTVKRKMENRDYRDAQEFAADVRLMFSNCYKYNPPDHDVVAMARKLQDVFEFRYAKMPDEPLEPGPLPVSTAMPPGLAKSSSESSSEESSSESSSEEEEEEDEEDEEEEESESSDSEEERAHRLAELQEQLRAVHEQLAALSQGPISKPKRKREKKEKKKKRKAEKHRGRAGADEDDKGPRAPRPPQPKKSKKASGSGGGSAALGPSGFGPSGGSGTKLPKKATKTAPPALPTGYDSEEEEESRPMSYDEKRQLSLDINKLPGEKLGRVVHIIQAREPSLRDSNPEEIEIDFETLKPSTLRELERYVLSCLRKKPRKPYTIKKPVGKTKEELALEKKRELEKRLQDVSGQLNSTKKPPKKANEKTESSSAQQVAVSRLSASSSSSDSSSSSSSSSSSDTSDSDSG
CREB-binding protein, sequence (Q92793 whole entry, the tested form may be a part): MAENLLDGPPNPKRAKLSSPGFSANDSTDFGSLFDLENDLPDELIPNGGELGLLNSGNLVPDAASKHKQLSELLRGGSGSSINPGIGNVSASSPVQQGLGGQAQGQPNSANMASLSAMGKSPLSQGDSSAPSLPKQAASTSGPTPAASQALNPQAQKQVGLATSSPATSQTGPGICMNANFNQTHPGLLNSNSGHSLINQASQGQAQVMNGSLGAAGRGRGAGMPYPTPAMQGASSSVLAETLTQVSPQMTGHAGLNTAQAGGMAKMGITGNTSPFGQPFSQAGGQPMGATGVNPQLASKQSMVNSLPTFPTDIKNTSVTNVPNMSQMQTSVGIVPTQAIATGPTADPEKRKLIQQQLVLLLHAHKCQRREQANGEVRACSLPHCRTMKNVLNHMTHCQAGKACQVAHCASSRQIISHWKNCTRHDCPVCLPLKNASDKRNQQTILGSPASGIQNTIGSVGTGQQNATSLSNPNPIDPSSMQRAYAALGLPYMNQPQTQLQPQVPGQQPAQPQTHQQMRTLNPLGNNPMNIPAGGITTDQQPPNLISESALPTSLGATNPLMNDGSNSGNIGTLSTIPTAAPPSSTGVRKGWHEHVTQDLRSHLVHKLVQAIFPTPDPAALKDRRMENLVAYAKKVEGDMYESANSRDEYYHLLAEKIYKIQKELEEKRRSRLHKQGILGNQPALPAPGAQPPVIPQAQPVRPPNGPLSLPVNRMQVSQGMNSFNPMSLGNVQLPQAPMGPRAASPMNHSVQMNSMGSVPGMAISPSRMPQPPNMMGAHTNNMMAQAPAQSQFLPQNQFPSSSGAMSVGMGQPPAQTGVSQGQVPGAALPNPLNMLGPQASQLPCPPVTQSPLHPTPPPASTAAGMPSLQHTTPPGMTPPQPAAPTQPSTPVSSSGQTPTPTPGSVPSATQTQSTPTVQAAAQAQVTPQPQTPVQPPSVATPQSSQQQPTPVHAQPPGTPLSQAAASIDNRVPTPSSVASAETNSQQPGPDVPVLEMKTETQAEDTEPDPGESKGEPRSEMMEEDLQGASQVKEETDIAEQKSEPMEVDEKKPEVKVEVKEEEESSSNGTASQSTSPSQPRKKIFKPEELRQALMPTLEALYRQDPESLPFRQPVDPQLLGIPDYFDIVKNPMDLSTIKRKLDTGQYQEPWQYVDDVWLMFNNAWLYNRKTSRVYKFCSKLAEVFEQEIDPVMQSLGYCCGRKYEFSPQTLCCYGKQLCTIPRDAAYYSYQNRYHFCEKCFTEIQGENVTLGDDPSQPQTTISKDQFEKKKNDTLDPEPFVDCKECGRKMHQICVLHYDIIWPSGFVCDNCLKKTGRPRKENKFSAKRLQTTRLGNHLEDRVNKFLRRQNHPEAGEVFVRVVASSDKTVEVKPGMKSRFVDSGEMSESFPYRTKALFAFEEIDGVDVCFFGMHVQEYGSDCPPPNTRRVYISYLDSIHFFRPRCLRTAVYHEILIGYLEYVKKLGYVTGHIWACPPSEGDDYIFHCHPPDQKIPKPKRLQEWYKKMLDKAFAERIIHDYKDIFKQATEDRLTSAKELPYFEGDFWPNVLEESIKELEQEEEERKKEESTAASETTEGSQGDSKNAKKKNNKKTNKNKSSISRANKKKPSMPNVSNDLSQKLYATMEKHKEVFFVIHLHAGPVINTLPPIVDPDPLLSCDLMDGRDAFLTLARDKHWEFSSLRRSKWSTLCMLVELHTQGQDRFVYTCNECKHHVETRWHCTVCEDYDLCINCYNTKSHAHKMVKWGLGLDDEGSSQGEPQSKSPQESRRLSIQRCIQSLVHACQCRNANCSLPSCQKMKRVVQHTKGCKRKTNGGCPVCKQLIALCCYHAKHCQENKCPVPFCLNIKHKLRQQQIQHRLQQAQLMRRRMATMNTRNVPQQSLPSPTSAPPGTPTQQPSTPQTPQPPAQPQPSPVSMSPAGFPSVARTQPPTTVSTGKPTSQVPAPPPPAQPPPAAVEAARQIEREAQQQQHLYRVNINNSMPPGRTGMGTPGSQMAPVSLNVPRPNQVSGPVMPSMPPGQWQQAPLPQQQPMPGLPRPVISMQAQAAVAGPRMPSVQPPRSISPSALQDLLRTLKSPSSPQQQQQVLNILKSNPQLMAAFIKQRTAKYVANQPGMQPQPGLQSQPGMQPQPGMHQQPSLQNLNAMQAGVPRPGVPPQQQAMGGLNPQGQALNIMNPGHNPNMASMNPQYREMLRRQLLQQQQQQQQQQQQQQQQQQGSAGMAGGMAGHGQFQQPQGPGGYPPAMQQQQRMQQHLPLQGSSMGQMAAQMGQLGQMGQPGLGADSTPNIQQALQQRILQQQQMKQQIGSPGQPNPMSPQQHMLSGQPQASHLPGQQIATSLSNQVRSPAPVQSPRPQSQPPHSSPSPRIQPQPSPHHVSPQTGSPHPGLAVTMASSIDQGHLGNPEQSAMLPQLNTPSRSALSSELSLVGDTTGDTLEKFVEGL

Regarding `COc1cc2c(cc1-c1c(C)noc1C)[nH]c1ccnc(-c3c(C4CC4)n[nH]c3C)c12`, the Kd in test [1] is > 10000 nM; in test [2], 10000 nM; in test [3] it was 44.6 nM; in test [4] it was > 10000 nM; on CREB-binding protein, 670 nM. The molecule also registered a Ki in test [5] of 11.7 nM. This molecule yielded an IC50 in the test on MV4-11 of 20 nM.

The Kd is the constant that tells how readily two partners part at equilibrium. Lower therefore signals higher affinity. The Ki is the equilibrium dissociation constant of an inhibitor or competing ligand from its target. Low readings indicate tighter binding, high ones weaker binding. Usually IC50 stands for the concentration needed to halve the response being measured. Read a low IC50 as inhibition by little substance.
